Key:
Format in all cases: functional
Thromboxane-A synthase = molecular target: T1, Thromboxane-A synthase (Homo sapiens, UniProt P24557); assay: In vitro inhibition of TXB2 production by incubating prostaglandin H2 with human platelet microsomes.
T1 sequence (P24557 whole entry): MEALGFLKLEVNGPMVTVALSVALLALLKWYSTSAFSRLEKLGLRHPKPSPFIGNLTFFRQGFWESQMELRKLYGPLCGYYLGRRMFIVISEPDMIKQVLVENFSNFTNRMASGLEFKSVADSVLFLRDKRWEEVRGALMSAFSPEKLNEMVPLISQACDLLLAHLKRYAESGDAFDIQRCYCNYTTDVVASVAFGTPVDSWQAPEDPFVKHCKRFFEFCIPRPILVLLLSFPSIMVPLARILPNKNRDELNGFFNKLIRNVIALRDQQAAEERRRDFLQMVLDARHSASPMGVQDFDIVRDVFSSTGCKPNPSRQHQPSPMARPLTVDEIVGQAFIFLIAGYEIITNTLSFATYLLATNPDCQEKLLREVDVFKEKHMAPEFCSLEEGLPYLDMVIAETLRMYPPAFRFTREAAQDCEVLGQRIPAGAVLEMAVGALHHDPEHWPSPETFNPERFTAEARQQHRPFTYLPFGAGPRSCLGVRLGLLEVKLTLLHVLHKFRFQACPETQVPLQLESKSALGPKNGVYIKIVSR

Oryctolagus cuniculus = species on record: Oryctolagus cuniculus; assay: In vitro inhibition of platelet activating factor induced platelet aggregation in rabbit platelet rich plasma.
Mus musculus = species on record: Mus musculus; assay: Ex vivo antagonistic activity towards platelet activating factor was assessed in mouse by using PAF-induced death assay

Row | SMILES | IC50 (Thromboxane-A synthase) | IC50 (Oryctolagus cuniculus) | ED50 (Mus musculus)
1 | CCOC(=O)CCCCO/N=C(/c1cccnc1)c1ccccc1C(=O)N1CCN(C(=O)C2CSC(c3cccnc3)N2)CC1 (stereo not given) | > 1000 nM | 560 nM | –
2 | CCOC(=O)CCCCO/N=C(\c1cccnc1)c1cccc(CN2CCN(C(=O)C3CSC(c4cccnc4)N3)CC2)c1 (stereo not given) | 88 nM | 200 nM | –
3 | CCOC(=O)CCCCO/N=C(\c1ccc(NC(=O)C2CSC(c3cccnc3)N2)cc1)c1cccnc1 (stereo not given) | 21 nM | > 1000 nM | –
4 | CCOC(=O)CCCCO/N=C(\c1cccnc1)c1cccc(NC(=O)c2ccn3c2CSC3c2cccnc2)c1 (stereo not given) | 1.2 nM | 450 nM | –
5 | CCOC(=O)CCCCO/N=C(/c1cccnc1)c1cccc(CNS(=O)(=O)c2ccc(Cn3c(C)nc4cnccc43)cc2)c1 | 4.7 nM | 68 nM | –
6 | CCOC(=O)CCCCO/N=C(/c1ccccc1)c1cccnc1 | 1 nM | – | –
7 | Cc1nc2cnccc2n1Cc1ccc(S(=O)(=O)NCc2cccc(/C(=N\OCCCCC(=O)O)c3cccnc3)c2)cc1 | 1.8 nM | > 1000 nM | –
8 | CCOC(=O)CCCCO/N=C(/c1cccnc1)c1cccc(C(=O)N2CCN(C(=O)C3CSC(c4cccnc4)N3)CC2)c1 (stereo not given) | 52 nM | 480 nM | –
9 | CCOC(=O)CCCCO/N=C(\c1cccnc1)c1cccc(CNS(=O)(=O)c2ccc(Cn3c(C)nc4cnccc43)cc2)c1 | 5.8 nM | 68 nM | –
10 | CCOC(=O)CCCCO/N=C(\c1ccc(NC(=O)c2ccn3c2CSC3c2cccnc2)cc1)c1cccnc1 (stereo not given) | 3.6 nM | 550 nM | –
11 | CCOC(=O)C1=C(c2ccc(-n3c(C)nc4cnccc43)cc2)NC(C)=C(C(=O)Nc2ccccn2)C1c1ccccc1Cl (stereo not given) | – | 29 nM | –
12 | CCOC(=O)CCCCO/N=C(/c1cccnc1)c1cccc(C(=O)N2CCc3c(sc4c3C(c3ccccc3Cl)=NC(C)c3nnc(C)n3-4)C2)c1 (stereo not given) | 65 nM | 60 nM | 2.3 mg/kg
13 | CCOC(=O)CCCCO/N=C(\c1ccc(CN2CCN(C(=O)C3CSC(c4cccnc4)N3)CC2)cc1)c1cccnc1 (stereo not given) | 72 nM | 280 nM | –
14 | O=C(O)CCCCO/N=C(\c1cccnc1)c1cccc(CN2CCN(C(=O)C3CSC(c4cccnc4)N3)CC2)c1 (stereo not given) | 12 nM | > 1000 nM | –
15 | CCOC(=O)CCCCO/N=C(\c1ccc(C(=O)N2CCc3c(sc4c3C(c3ccccc3Cl)=NC(C)c3nnc(C)n3-4)C2)cc1)c1cccnc1 (stereo not given) | 72 nM | 100 nM | 0.5 mg/kg
16 | CCOC(=O)CCCCO/N=C(\c1cccnc1)c1cccc(NC(=O)C2CSC(c3cccnc3)N2)c1 (stereo not given) | 21 nM | > 1000 nM | –
17 | CCOC(=O)CCCCO/N=C(\c1ccc(C(=O)N2CCN(C(=O)C3CSC(c4cccnc4)N3)CC2)cc1)c1cccnc1 (stereo not given) | 44 nM | 610 nM | –
18 | Cc1nnc2n1-c1sc3c(c1C(c1ccccc1Cl)=N[C@H]2C)CCN(C(=O)C1CC1)C3 (racemic) | – | 360 nM | –

Reference: ChEMBL document CHEMBL1135837, “Approach to dual-acting platelet activating factor (PAF) receptor antagonist/thromboxane synthase inhibitor (TxSI) based on the link of PAF antagonists and TxSIs” (Bioorg Med Chem Lett, 2002)
